# Reference: paper PMC10945337 (Theranostics, 2024)
# Where two headings read alike, the source gives them in different places.
# Key:
# metastases = details: cited from earlier work
# [1] = cited from earlier work
# [2] = tested on: tumor lesions (bone metastases or lymph node metastases); assay: Whole-body planar and SPECT/CT imaging-based dosimetry of tumor lesions; assay type: in vivo, human; details: n = 17 tumor lesions
# [3] = Whole-body planar and SPECT/CT imaging-based dosimetry of normal organs (kidneys, liver, parotid and submandibular glands); assay type: in vivo, human
# [4] = bone metastases, ref Violet et al. [52]
# [5] = lymph node metastases, ref Violet et al. [52]
# [6] = kidneys, mean ± SD, 6 mCRPC patients
# [7] = liver, mean ± SD, 6 mCRPC patients
# [8] = parotid gland, mean ± SD, 6 mCRPC patients
# [9] = submandibular gland, mean ± SD, 6 mCRPC patients
# [10] = all metastases, ref Okamoto et al. [53]
compound,measurement,setting,value
[^177Lu]Lu-PSMA-617,"Absorbed dose, range",metastases; [4],0.41-10.71 Gy/GBq
same,Mean absorbed dose,metastases; [4],5.28 Gy/GBq
same,"Absorbed dose, range",metastases; [5],0.52-16.23 Gy/GBq
same,Mean absorbed dose,metastases; [5],3.91 Gy/GBq
same,Patients with grade 1 / 2 xerostomia,"[1]; REALITY study, ref [16]",20.9%
same,Patients with grade 1 / 2 xerostomia,"[1]; VISION study, ref [10]",38.8%
same,"Absorbed dose of the tumor lesions, range",[2]; 6 mCRPC patients,0.42 - 12.91 Gy/GBq
same,Mean absorbed dose of the tumor lesions,"[2]; 6 mCRPC patients, mean ± SD",2.59 ± 3.30 Gy/GBq
same,Effective half-life in tumor lesions (mean),[2]; mean ± SD,35.3 ± 6.3 h
same,"A (% injected A0), monoexponential curve-fitting parameter",[3]; [6],4.80 ± 1.94 % injected A0
same,Absorbed dose,[3]; [6],0.545 ± 0.231 mGy/MBq
same,Mean absorbed dose,[3]; [6],0.545 ± 0.231 Gy/GBq
same,TIAC (time-integrated activity coefficient),[3]; [6],1.59 ± 0.68 h
same,"λ, monoexponential curve-fitting parameter",[3]; [6],0.028 ± 0.011 h⁻¹
same,"A (% injected A0), monoexponential curve-fitting parameter",[3]; [7],2.28 ± 0.88 % injected A0
same,Absorbed dose,[3]; [7],0.103 ± 0.057 mGy/MBq
same,TIAC (time-integrated activity coefficient),[3]; [7],1.65 ± 1.36 h
same,"λ, monoexponential curve-fitting parameter",[3]; [7],0.030 ± 0.009 h⁻¹
same,"A (% injected A0), monoexponential curve-fitting parameter",[3]; [8],0.53 ± 0.20 % injected A0
same,Absorbed dose,[3]; [8],0.333 ± 0.194 mGy/MBq
same,TIAC (time-integrated activity coefficient),[3]; [8],0.13 ± 0.09 h
same,"λ, monoexponential curve-fitting parameter",[3]; [8],0.031 ± 0.005 h⁻¹
same,Individual absorbed dose,"[3]; patient 1 (pre-treatment N, C, L, R), kidneys",0.666 mGy/MBq
same,Individual absorbed dose,"[3]; patient 1 (pre-treatment N, C, L, R), liver",0.199 mGy/MBq
same,Individual absorbed dose,"[3]; patient 1 (pre-treatment N, C, L, R), parotid gland",0.398 mGy/MBq
same,Individual absorbed dose,"[3]; patient 1 (pre-treatment N, C, L, R), submandibular gland",0.309 mGy/MBq
same,Individual absorbed dose,"[3]; patient 2 (pre-treatment N, C, L, A, R), kidneys",0.492 mGy/MBq
same,Individual absorbed dose,"[3]; patient 2 (pre-treatment N, C, L, A, R), liver",0.138 mGy/MBq
same,Individual absorbed dose,"[3]; patient 2 (pre-treatment N, C, L, A, R), parotid gland",0.150 mGy/MBq
same,Individual absorbed dose,"[3]; patient 2 (pre-treatment N, C, L, A, R), submandibular gland",0.190 mGy/MBq
same,Individual absorbed dose,"[3]; patient 3 (pre-treatment N, C, L, A, R), kidneys",0.906 mGy/MBq
same,Individual absorbed dose,"[3]; patient 3 (pre-treatment N, C, L, A, R), liver",0.069 mGy/MBq
same,Individual absorbed dose,"[3]; patient 3 (pre-treatment N, C, L, A, R), parotid gland",0.146 mGy/MBq
same,Individual absorbed dose,"[3]; patient 3 (pre-treatment N, C, L, A, R), submandibular gland",0.112 mGy/MBq
same,Individual absorbed dose,"[3]; patient 4 (pre-treatment N, C, L, A, R), kidneys",0.674 mGy/MBq
same,Individual absorbed dose,"[3]; patient 4 (pre-treatment N, C, L, A, R), liver",0.125 mGy/MBq
same,Individual absorbed dose,"[3]; patient 4 (pre-treatment N, C, L, A, R), parotid gland",0.703 mGy/MBq
same,Individual absorbed dose,"[3]; patient 4 (pre-treatment N, C, L, A, R), submandibular gland",0.664 mGy/MBq
same,Individual absorbed dose,"[3]; patient 5 (pre-treatment N, C, L), kidneys",0.252 mGy/MBq
same,Individual absorbed dose,"[3]; patient 5 (pre-treatment N, C, L), liver",0.037 mGy/MBq
same,Individual absorbed dose,"[3]; patient 5 (pre-treatment N, C, L), parotid gland",0.217 mGy/MBq
same,Individual absorbed dose,"[3]; patient 5 (pre-treatment N, C, L), submandibular gland",0.178 mGy/MBq
same,Individual absorbed dose,"[3]; patient 6 (pre-treatment N, C, L, A), kidneys",0.278 mGy/MBq
same,Individual absorbed dose,"[3]; patient 6 (pre-treatment N, C, L, A), liver",0.049 mGy/MBq
same,Individual absorbed dose,"[3]; patient 6 (pre-treatment N, C, L, A), parotid gland",0.387 mGy/MBq
same,Individual absorbed dose,"[3]; patient 6 (pre-treatment N, C, L, A), submandibular gland",0.259 mGy/MBq
same,"A (% injected A0), monoexponential curve-fitting parameter",[3]; [9],0.41 ± 0.26 % injected A0
same,Absorbed dose,[3]; [9],0.285 ± 0.180 mGy/MBq
same,TIAC (time-integrated activity coefficient),[3]; [9],0.06 ± 0.05 h
same,"λ, monoexponential curve-fitting parameter",[3]; [9],0.030 ± 0.007 h⁻¹
O=C([O-])CC[C@H](NC(=O)N[C@@H](CCCCNC(=O)CCCCCCC(=O)NCCCC[C@@H](NC(=O)[C@@H](Cc1ccccc1)NC(=O)[C@@H](Cc1ccc(O)c(I)c1)NC(=O)CC[C@H](C(=O)[O-])N1CCN(CC(=O)[O-])CCN(CC(=O)[O-])CCN(CC(=O)[O-])CC1)C(=O)[O-])C(=O)[O-])C(=O)[O-].[177Lu+3].[H+].[H+].[H+].[H+].[H+] [[^177Lu]Lu-PSMA I&T],"Absorbed dose, range",metastases; [10],0.22 - 12.03 Gy/GBq
same,Mean absorbed dose,metastases; [10],3.2 ± 2.6 Gy/GBq
